Assays:
Assay in all cases: relative viability (nuclei count vs DMSO), 5 days (fraction); higher = more cells survive
AZ505 + Vorinostat = compound: C1CCC(CC1)N(CCNCCC2=C3C(=C(C=C2)O)NC(=O)CO3)C(=O)CCNCCC4=CC(=C(C=C4)Cl)Cl [AZ505] + O=C(CCCCCCC(=O)Nc1ccccc1)NO [Vorinostat] (partner 1 µM)
How it was run: (§1)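 Lung cancer cell lines in 1536-well plates got either a single drug or a fixed anchor-drug dose together with five library-drug doses (not always all listed) in √10 steps, by pin tool, on the day after seeding. Nuclei were counted after 5 days, and relative viability is the treated-to-vehicle ratio of nuclei counts. Values are medians of duplicate plates.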

Dactolisib + Luminespib = compound: Cn1c(=O)n(-c2ccc(C(C)(C)C#N)cc2)c2c3cc(-c4cnc5ccccc5c4)ccc3ncc21 [Dactolisib] + CCNC(=O)c1noc(-c2cc(C(C)C)c(O)cc2O)c1-c1ccc(CN2CCOCC2)cc1 [Luminespib] (partner 0.01 µM)
How it was run: as §1

Dactolisib + Tozasertib = compound: Cn1c(=O)n(-c2ccc(C(C)(C)C#N)cc2)c2c3cc(-c4cnc5ccccc5c4)ccc3ncc21 [Dactolisib] + Cc1cc(Nc2cc(N3CCN(C)CC3)nc(Sc3ccc(NC(=O)C4CC4)cc3)n2)n[nH]1 [Tozasertib] (partner 0.1 µM)
How it was run: as §1

Dactolisib + Olaparib = compound: Cn1c(=O)n(-c2ccc(C(C)(C)C#N)cc2)c2c3cc(-c4cnc5ccccc5c4)ccc3ncc21 [Dactolisib] + O=C(c1cc(Cc2n[nH]c(=O)c3ccccc23)ccc1F)N1CCN(C(=O)C2CC2)CC1 [Olaparib] (partner 8 µM)
How it was run: as §1

| Cell Line | relative viability (AZ505 + Vorinostat; first compound 0.08 µM) | relative viability (AZ505 + Vorinostat; first compound 0.253 µM) | relative viability (AZ505 + Vorinostat; first compound 0.8 µM) | relative viability (AZ505 + Vorinostat; first compound 2.53 µM) | relative viability (AZ505 + Vorinostat; first compound 8 µM) | relative viability (Dactolisib + Luminespib; first compound 0.002 µM) | relative viability (Dactolisib + Luminespib; first compound 0.006325 µM) | relative viability (Dactolisib + Luminespib; first compound 0.02 µM) | relative viability (Dactolisib + Luminespib; first compound 0.06325 µM) | relative viability (Dactolisib + Luminespib; first compound 0.2 µM) | relative viability (Dactolisib + Tozasertib; first compound 0.002 µM) | relative viability (Dactolisib + Tozasertib; first compound 0.006325 µM) | relative viability (Dactolisib + Tozasertib; first compound 0.02 µM) | relative viability (Dactolisib + Tozasertib; first compound 0.06325 µM) | relative viability (Dactolisib + Tozasertib; first compound 0.2 µM) | relative viability (Dactolisib + Olaparib; first compound 0.002 µM) | relative viability (Dactolisib + Olaparib; first compound 0.006325 µM) | relative viability (Dactolisib + Olaparib; first compound 0.02 µM) | relative viability (Dactolisib + Olaparib; first compound 0.06325 µM) | relative viability (Dactolisib + Olaparib; first compound 0.2 µM) |
| --- | --- | --- | --- | --- | --- | --- | --- | --- | --- | --- | --- | --- | --- | --- | --- | --- | --- | --- | --- | --- |
| NCI-H2342 | 0.799 | 0.844 | 0.84 | 0.866 | 0.83 | 0.677 | 0.634 | 0.653 | 0.495 | 0.437 | 0.475 | 0.496 | 0.435 | 0.502 | 0.362 | 0.411 | 0.369 | 0.501 | 0.376 | 0.382 |
| HCC-15 | 0.844 | 0.817 | 0.803 | 0.854 | 0.824 | 0.38 | 0.303 | 0.507 | 0.173 | 0.142 | 0.388 | 0.386 | 0.449 | 0.326 | 0.215 | 0.957 | 0.699 | 0.699 | 0.535 | 0.39 |
| A-427 | 0.877 | 0.839 | 0.82 | 0.872 | 0.837 | 0.737 | 0.834 | 0.861 | 0.572 | 0.47 | 0.201 | 0.192 | 0.253 | 0.208 | 0.187 | 0.877 | 0.675 | 0.707 | 0.619 | 0.495 |
| NCI-H2228 | 0.409 | 0.589 | 0.543 | 0.643 | 0.588 | 0.15 | 0.143 | 0.112 | 0.176 | 0.128 | 0.256 | 0.294 | 0.191 | 0.112 | 0.0991 | 1.01 | 0.486 | 0.326 | 0.177 | 0.104 |
| NCI-H1734 | 0.751 | 0.842 | 0.731 | 0.832 | 0.773 | 0.151 | 0.211 | 0.196 | 0.184 | 0.169 | 0.212 | 0.259 | 0.279 | 0.23 | 0.198 | 0.644 | 0.548 | 0.471 | 0.405 | 0.266 |
| SK-LU-1 | 0.488 | 0.463 | 0.513 | 0.548 | 0.588 | 0.211 | 0.18 | 0.214 | 0.159 | 0.132 | 0.324 | 0.307 | 0.302 | 0.245 | 0.176 | 0.428 | 0.406 | 0.539 | 0.402 | 0.216 |
| PC-14 | 0.527 | 0.79 | 0.659 | 0.688 | 0.761 | 0.136 | 0.16 | 0.172 | 0.11 | 0.128 | 0.576 | 0.679 | 0.629 | 0.215 | 0.125 | 0.337 | 0.505 | 0.359 | 0.141 | 0.0895 |
| NCI-H1915 | 0.469 | 0.66 | 0.508 | 0.472 | 0.495 | 0.78 | 0.823 | 0.692 | 0.516 | 0.442 | 0.419 | 0.506 | 0.459 | 0.404 | 0.296 | 0.254 | 0.253 | 0.293 | 0.264 | 0.246 |
| NCI-H1666 | 1.01 | 1.01 | 0.962 | 1.03 | 1.12 | 1.1 | 0.963 | 1.02 | 0.746 | 0.788 | 0.742 | 0.614 | 0.667 | 0.526 | 0.614 | 0.955 | 0.683 | 0.874 | 0.713 | 0.747 |
| HCC-366 | 0.356 | 0.393 | 0.344 | 0.354 | 0.377 | – | – | – | – | – | 0.11 | 0.101 | 0.0652 | 0.0776 | 0.0308 | 0.243 | 0.356 | 0.38 | 0.166 | 0.142 |
| SK-MES-1 | 0.889 | 1 | 0.969 | 0.893 | 0.995 | 0.828 | 0.744 | 0.349 | 0.286 | 0.171 | 0.989 | 0.84 | 0.876 | 0.32 | 0.264 | 0.739 | 0.685 | 0.531 | 0.286 | 0.171 |
| NCI-H661 | 0.744 | 0.818 | 0.797 | 0.75 | 0.888 | 0.929 | 0.99 | 0.866 | 0.391 | 0.496 | 0.345 | 0.366 | 0.345 | 0.381 | 0.353 | 0.706 | 0.656 | 0.771 | 0.504 | 0.434 |
| PC-3 [JPC-3] | 0.821 | – | 0.786 | 0.934 | 1.09 | 0.759 | 0.639 | 0.683 | 0.472 | 0.48 | 0.967 | 0.896 | 0.803 | 0.831 | 0.608 | 1.17 | 1.07 | 1.21 | 1.02 | 0.963 |
| NCI-H1623 | – | – | – | – | – | 0.604 | 0.491 | 0.462 | 0.308 | 0.275 | 0.396 | 0.414 | 0.428 | 0.37 | 0.298 | – | – | – | – | – |
| Calu-6 | – | – | – | – | – | – | – | – | – | – | – | – | – | – | – | 0.553 | 0.642 | 0.688 | 0.469 | 0.458 |
| LC-2-ad | 0.657 | 0.712 | 0.689 | 0.708 | 0.772 | 1.14 | 0.923 | 0.922 | 0.551 | 0.524 | 0.454 | 0.412 | 0.43 | 0.363 | 0.333 | 0.825 | 0.749 | 0.747 | 0.864 | 0.852 |
| CAL-12T | 0.577 | 0.971 | 0.692 | 0.849 | 1.01 | 0.477 | 0.128 | 0.117 | 0.142 | 0.12 | 0.288 | 0.296 | 0.241 | 0.163 | 0.121 | 0.822 | 0.662 | 0.496 | 0.286 | 0.271 |

From the supplement of paper PMC10307832
